Earlier results on 2 molecules are cited in US20250221936A1, “ENGINEERED HEMICHANNELS, ENGINEERED VESICLES, AND USES THEREOF” (VIRGINIA TECH INTELLECTUAL PROPERTIES, INC., priority 2018, published 2025).

The subject of the series is silicon wafer implants. Conditions: 24 hours; cited from earlier work.

“Also recorded” adds a separate entry of the source.

As to `Nc1ncnc2c1ncn2[C@@H]1O[C@H](COP(=O)(O)OP(=O)(O)OP(=O)(O)O)[C@@H](O)[C@H]1O` [ATP], the inflammatory infiltrate result is reported as “profound increase in inflammatory infiltrate; also recorded: more inflammatory infiltrate than the surgery alone”. Take apyrase: the inflammatory infiltrate result is recorded as “significantly reduced the inflammatory infiltrate”.
